From patent publication US9701670B2, “Pyrazolyl-ureas as kinase inhibitors” (RESPIVERT LIMITED, priority 2013, dated 2017)

How the values were obtained:
[1] = molecular target: T1, p38 MAPKα isoform (MAPK14) (Homo sapiens (Human), UniProt Q16539); assay: p38 MAPKα enzyme inhibition (FRET, Z-LYTE), Method 1; type: biochemical; conditions: Method 1 (Table 4a1)
[2] = system: β-catenin in d-U937 cells; assay: (m) Accumulation of β catenin in d-U937 cells; type: cell-based, human
In short: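 PMA-differentiated U937 macrophage-type cells (100 ng/mL, 48–72 hr) were exposed to test compound or vehicle for 18 hr, then fixed. β-catenin was measured by cell ELISA (HRP/TMB, OD450-655) and normalised to crystal violet OD595. Signals below 15% of the standard control were designated "-ve".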

[3] = molecular target: Syk (Homo sapiens (Human), UniProt P43405); assay: Syk enzyme inhibition (FRET, Z-LYTE); type: biochemical; conditions: different laboratory (Table 4a2)
Procedure: (§1) The enzyme inhibitory activities of compounds disclosed herein are determined by FRET using synthetic peptides labelled with both donor and acceptor fluorophores (Z-LYTE, Invitrogen Ltd., Paisley, UK).
The relevant enzyme (3000 ng/mL or 2000 ng/mL respectively, 2.5 μL) is incubated with the test compound (either 4 μg/mL, 0.4 μg/mL, 0.04 μg/mL, or 0.004 μg/mL, 2.5 μL each) for 2 hr at RT. The FRET peptides (8 μM, 2.5 μL), and appropriate ATP solutions (2.5 μL, 800 μM for c-Src, and 60 μM ATP for Syk) are then added to the enzymes/compound mixtures and incubated for 1 hr. Development reagent (protease, 5 μL) is added for 1 hr prior to detection in a fluorescence microplate reader (Varioskan® Flash, ThermoFisher Scientific).
(§2) In all cases, the site-specific protease cleaves non-phosphorylated peptide only and eliminates the FRET signal. Phosphorylation levels of each reaction are calculated using the ratio of coumarin emission (donor) over fluorescein emission (acceptor), for which high ratios indicate high phosphorylation and low ratios indicate low phosphorylation levels.

[4] = molecular target: T1, p38 MAPKα isoform (MAPK14); assay: p38 MAPKα enzyme inhibition (FRET, Z-LYTE), Method 2; type: biochemical; conditions: Method 2, different laboratory (Table 4a2)
[5] = system: Balb/c mice; assay: (A) LPS-induced neutrophil accumulation in mice; type: in vivo, mouse; conditions: mice, test substance at 0.2 mg/mL, dosed 8 hr pre-LPS challenge; for Neutrophil numbers in BAL: +/−SEM, N = 8
Procedure: […] At T=0, mice are placed into an exposure chamber and exposed to LPS (7.0 mL, 0.5 mg/mL solution in PBS) for 30 min). After a further 8 hr the animals are anesthetized, their tracheas cannulated and BALF extracted by infusing and then withdrawing from their lungs 1.0 mL of PBS via the tracheal catheter. Total and differential white cell counts in the BALF samples are measured using a Neubaur haemocytometer. Cytospin smears of the BALF samples are prepared by centrifugation at 200 rpm for 5 min at RT and stained using a DiffQuik stain system (Dade Behring). Cells are counted using oil immersion microscopy. Data for neutrophil numbers in BAL are shown as mean±S.E.M. (standard error of the mean). The percentage inhibition of neutrophil accumulation is calculated for each treatment relative to vehicle treatment.

[6] = system: Differentiated U937 cells; assay: (l) Cell viability: MTT assay; type: cell-based, human; conditions: 1 μg/mL
In short: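 MTT read-out (1 h, absorbance 550 nm) on d-U937 cells after pre-incubation with 1 or 10 μg/mL compound under two regimes: 4 h, 5% FCS, or 24 h, 10% FCS RPMI1640. Values are percent loss of viability relative to vehicle (0.5% DMSO), so increases are reported as negative.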

[7] = system: HRV16; assay: (j) HRV16 induced CPE in MRC5 cells; type: cell-based; conditions: HRV-16
Procedure: The supernatants are aspirated, and then fresh media added followed by incubation for 4 days. Where appropriate, cells are pre-incubated with compound or DMSO for 2 hr, and the compounds and DMSO added again after washout of the virus.
After washing, 1% SDS in distilled water (100 μL) is added to each well, and the plates are shaken lightly for 1-2 hr prior to reading the absorbance at 660 nm. The percentage inhibition for each well is calculated. The IC50 value is calculated from the concentration-response curve generated by the serial dilutions of the test compounds.

[8] = molecular target: GSK 3α (Homo sapiens (Human), UniProt P49840); assay: GSK 3α enzyme inhibition (FRET, Z-LYTE), Method 1; type: biochemical; conditions: Method 1 (Table 4a1); read-out: IC50 Values for Enzyme Inhibition GSK3α
Procedure: as §1
The inhibitory activities of compounds of the invention against the GSK 3α enzyme isoform (Invitrogen), are evaluated by determining the level of activation/phosphorylation of the target peptide. The GSK3-α protein (500 ng/mL, 2.5 μL) is mixed with the test compound (2.5 μL at either 4 μg/mL, 0.4 μg/mL, 0.04 μg/mL, or 0.004 μg/mL) for 2 hr at RT. The FRET peptide (8 μM, 2.5 μL), which is a phosphorylation target for GSK3α, and ATP (40 μM, 2.5 μL) are then added to the enzyme/compound mixture and the resulting mixture incubated for 1 hr. Development reagent (protease, 5 μL) is added for 1 hr prior to detection in a fluorescence microplate reader (Varioskan® Flash, ThermoFisher Scientific).
as §2

[9] = system: HCK; assay: Enzyme binding assay (Kinomescan)
Procedure: These assays were conducted by DiscoverX (formerly Ambit; San Diego, Calif.). The percentage inhibition produced by incubation with a test compound is calculated relative to the non-inhibited control.

T1 sequence (Q16539 whole entry, canonical isoform): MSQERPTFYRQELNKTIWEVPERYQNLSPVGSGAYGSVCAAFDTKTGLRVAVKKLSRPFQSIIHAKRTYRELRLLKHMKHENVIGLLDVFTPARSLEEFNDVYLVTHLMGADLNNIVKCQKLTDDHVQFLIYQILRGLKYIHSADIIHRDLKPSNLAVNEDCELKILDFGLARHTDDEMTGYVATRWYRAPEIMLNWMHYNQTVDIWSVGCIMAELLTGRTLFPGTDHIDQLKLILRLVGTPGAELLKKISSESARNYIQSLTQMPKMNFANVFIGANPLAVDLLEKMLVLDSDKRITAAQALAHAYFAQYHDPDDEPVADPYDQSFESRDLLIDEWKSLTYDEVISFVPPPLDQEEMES
GSK 3α, sequence (P49840 whole entry): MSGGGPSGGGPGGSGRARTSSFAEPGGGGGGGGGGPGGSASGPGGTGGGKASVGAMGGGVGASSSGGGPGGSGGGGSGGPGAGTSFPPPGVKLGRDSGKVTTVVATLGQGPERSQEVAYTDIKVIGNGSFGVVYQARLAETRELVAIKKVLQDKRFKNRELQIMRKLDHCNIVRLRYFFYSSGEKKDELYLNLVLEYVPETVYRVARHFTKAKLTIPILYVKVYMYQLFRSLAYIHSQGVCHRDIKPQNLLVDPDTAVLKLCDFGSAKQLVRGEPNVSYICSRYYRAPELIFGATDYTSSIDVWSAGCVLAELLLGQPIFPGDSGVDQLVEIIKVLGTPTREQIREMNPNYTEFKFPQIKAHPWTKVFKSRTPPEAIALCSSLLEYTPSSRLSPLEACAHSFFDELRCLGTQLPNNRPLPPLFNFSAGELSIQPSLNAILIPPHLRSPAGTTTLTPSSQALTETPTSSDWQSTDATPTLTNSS

| SMILES | IC50 [1] | β-catenin inductive effect relative to the effect produced by the Reference Compound at 1 μg/mL ([2]; test concentration of 10 μg/mL, found to be negative) | IC50 [3] | IC50 [4] | % inhibition of neutrophil numbers in BAL [5] | Neutrophil numbers in BAL [5] | Cell viability at time point in d-U937 cells 4 h [6] | Cell viability at time point in d-U937 cells 24 h [6] | IC50 [7] | IC50 [8] | % β-catenin induction ([2]; 1 μg/mL test compound) | % Inhibition of kinase binding at 500 nM HCK [9] |
| --- | --- | --- | --- | --- | --- | --- | --- | --- | --- | --- | --- | --- |
| COc1cc(Nc2nccc(Oc3ccc(NC(=O)Nc4cc(C(F)(F)C(F)(F)F)nn4-c4ccc(C)cc4)c4ccccc34)n2)cc(C(=O)NCCN2CCOCC2)c1 [Example 9, 3-Methoxy-N-(2-morpholinoethyl)-5-((4-((4-(3-(3-(perfluoroethyl)-1-(p-tolyl)-1H-pyrazol-5-yl)ureido)naphthalen-1-yl)oxy)pyrimidin-2-yl)amino)benzamide] | 49 nM | less than 15% | 43 nM | 174 nM | 51% | 8.0 ± 1.6 ×10^5/mL | −ve (−ve and +ve indicate that the value is below and above respectively, the no significant effect threshold, defined as 30% inhibition at 1 μg/mL at the time point indicated.) | −ve (−ve and +ve indicate that the value is below and above respectively, the no significant effect threshold, defined as 30% inhibition at 1 μg/mL at the time point indicated.) | – | – | – | – |
| COc1ccc(-n2nc(C(C)C)cc2NC(=O)Nc2ccc(Oc3ccnc(Nc4cc(OC)cc(C(=O)NCCN5CCOCC5)c4)n3)c3ccccc23)cc1 [Example 53, 3-((4-((4-(3-(3-isopropyl-1-(4-methoxyphenyl)-1H-pyrazol-5-yl)ureido)naphthalen-1-yl)oxy)pyrimidin-2-yl)amino)-5-methoxy-N-(2-morpholinoethyl)benzamide] | 2 nM | – | – | 37 nM | – | – | −ve (−ve and +ve indicate that the value is below and above respectively, the no significant effect threshold, defined as 30% inhibition at 1 μg/mL at the time point indicated.) | −ve (−ve and +ve indicate that the value is below and above respectively, the no significant effect threshold, defined as 30% inhibition at 1 μg/mL at the time point indicated.) | 2 nM | – | – | – |
| COc1cc(Nc2nccc(Oc3ccc(NC(=O)Nc4cc(C(C)C)nn4-c4ccc(C)cc4)c4ccccc34)n2)cc(C(=O)NCCO)c1 [Example 63, N-(2-hydroxyethyl)-3-((4-((4-(3-(3-isopropyl-1-(p-tolyl)-1H-pyrazol-5-yl)ureido)naphthalen-1-yl)oxy)pyrimidin-2-yl)amino)-5-methoxybenzamide] | 45 nM | – | – | – | – | – | −ve (−ve and +ve indicate that the value is below and above respectively, the no significant effect threshold, defined as 30% inhibition at 1 μg/mL at the time point indicated.) | −ve (−ve and +ve indicate that the value is below and above respectively, the no significant effect threshold, defined as 30% inhibition at 1 μg/mL at the time point indicated.) | – | 13000 nM | – | – |
| COCC(=O)Nc1cc(Oc2ccc(NC(=O)Nc3cc(C(C)(C)C)nn3-c3ccc(C)cc3)c3ccccc23)ccn1 [Reference Compound, N-(4-(4-(3-(3-tert-butyl-1-p-tolyl-1H-pyrazol-5-yl)ureido)naphthalen-1-yloxy)pyridin-2-yl)-2-methoxyacetamide, reference compound] | – | – | – | – | 60% | 5.6 ± 0.86 ×10^5/mL | −ve (−ve and +ve indicate that the value is below and above respectively, the no significant effect threshold, defined as 30% inhibition at 1 μg/mL at the time point indicated.) | +ve (−ve and +ve indicate that the value is below and above respectively, the no significant effect threshold, defined as 30% inhibition at 1 μg/mL at the time point indicated.) | – | – | 208% | 100% |
